Test results as given in patent publication US10829520B2, “Beta-hairpin peptidomimetics” (POLYPHOR AG, priority 2015, dated 2020).
Where a SMILES comes first, the peptide text is derived from it. Bridges are numbered along the chain shown (N, C = ends). Roman numbers before positions name the chains, in order. [ ]: non-standard residue; d: D form. Hyp = O=C(O)[C@@H]1C[C@@H](O)CN1; dDab = NCC[C@@H](N)C(=O)O; Orn = NCCC[C@H](N)C(=O)O; Dab = NCC[C@H](N)C(=O)O; dAze = O=C(O)[C@H]1CCN1

What was measured:
Format in all cases: cell-based
[1] = system: Pseudomonas aeruginosa ATCC 27853; conditions: ATCC 27853
Summary of the method: (§1)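 CLSI broth microdilution; MH-II (cation-adjusted) + 0.002% P-80; ~10^6 CFU/mL inoculum; peptide two-fold serial dilutions; 18-20 h, 35° C; MIC = no visible growth, μg/mL.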

[2] = system: Acinetobacter baumannii 872842; conditions: 872842
[3] = system: Escherichia coli ATCC 25922; conditions: ATCC 25922
Summary of the method: as §1

[4] = system: Klebsiella pneumoniae 968733; conditions: 968733
[5] = system: Klebsiella pneumoniae SSI #3010; conditions: SSI #3010
Summary of the method: as §1

[6] = system: Acinetobacter baumannii DSM 30008; conditions: DSM 30008
Summary of the method: as §1

Escherichia coli 926415 = conditions: 926415
[7] = system: human red blood cells (hRBC); experiment: Hemolysis of human red blood cells; conditions: red cells of human, 1 h, 100
Summary of the method: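 Each peptide was tested at a single concentration, 100 μg/mL. Erythrocytes (20% v/v) were incubated 1 h at 37° C. under shaking at 300 rpm, centrifuged, and released hemoglobin measured at OD540. Controls were PBS containing 0.001% acetic acid (0%) and Triton X-100 (100%).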

SMILES: CC(C)C[C@@H]1NC(=O)[C@@H](CC(C)C)NC(=O)[C@H](CCN)NC(=O)[C@@H](NC(=O)[C@H](CCN)NC(=O)[C@@H](NC(=O)[C@H](CCN)NC(=O)CC[C@@H]2NC(=O)CNC(=O)[C@H](Cc3ccc(O)cc3)NC(=O)[C@H](CO)NC(=O)[C@H](CC(C)C)NC(=O)[C@@H]3CCCN3C(=O)[C@H]3CCCN3C(=O)[C@H](CO)NC(=O)[C@H]([C@@H](C)O)NC(=O)[C@H](C(C)C)NC(=O)[C@H](CCN)NC(=O)[C@H](Cc3c[nH]c4ccccc34)NC(=O)[C@H](CCN)NC(=O)[C@@H](CCN)NC2=O)[C@@H](C)O)CCNC(=O)[C@H]([C@@H](C)O)NC(=O)[C@H](CCN)NC(=O)[C@H](CCN)NC1=O [Ex. 90] (I: cyclo(LSYGE[dDab][Dab]W[Dab]VTS[dP]P) / II: [Dab]T[Dab][Dab][Dab][dL]L[Dab][Dab]T; amide I:5-II:N; lactam II:4-II:C)
- Pseudomonas aeruginosa ATCC 27853 MIC [1]: 0.25 µg/mL
- Acinetobacter baumannii 872842 MIC [2]: 0.25 µg/mL
- Escherichia coli ATCC 25922 MIC [3]: 0.125 µg/mL
- Klebsiella pneumoniae 968733 MIC [4]: 0.25 µg/mL
- Klebsiella pneumoniae SSI #3010 MIC [5]: 0.125 µg/mL
- Acinetobacter baumannii DSM 30008 MIC [6]: 0.125 µg/mL
- Escherichia coli 926415 MIC (Escherichia coli 926415): 0.25 µg/mL
- Hemolysis at 100 μg/mL [7]: 1%

SMILES: CC(C)C[C@@H]1NC(=O)[C@@H](CC(C)C)NC(=O)[C@H](CCN)NC(=O)[C@@H](NC(=O)[C@H](CCN)NC(=O)[C@@H](NC(=O)[C@H](CCN)NC(=O)CC[C@@H]2NC(=O)[C@H](CCN)NC(=O)[C@H](Cc3ccc(O)cc3)NC(=O)[C@H]([C@@H](C)O)NC(=O)[C@H](CC(C)C)NC(=O)[C@@H]3CCCN3C(=O)[C@H]3CCCN3C(=O)[C@H](CO)NC(=O)[C@H]([C@@H](C)O)NC(=O)[C@H](C(C)C)NC(=O)[C@H](CCN)NC(=O)[C@H](Cc3c[nH]c4ccccc34)NC(=O)[C@H](CCN)NC(=O)[C@@H](CCN)NC2=O)[C@@H](C)O)CCNC(=O)[C@H]([C@@H](C)O)NC(=O)[C@H](CCN)NC(=O)[C@H](CCN)NC1=O [Ex. 91] (I: cyclo(LTY[Dab]E[dDab][Dab]W[Dab]VTS[dP]P) / II: [Dab]T[Dab][Dab][Dab][dL]L[Dab][Dab]T; amide I:5-II:N; lactam II:4-II:C)
- Pseudomonas aeruginosa ATCC 27853 MIC [1]: 0.5 µg/mL
- Acinetobacter baumannii 872842 MIC [2]: 0.5 µg/mL
- Escherichia coli ATCC 25922 MIC [3]: 0.125 µg/mL
- Klebsiella pneumoniae 968733 MIC [4]: 1 µg/mL
- Klebsiella pneumoniae SSI #3010 MIC [5]: 0.125 µg/mL
- Acinetobacter baumannii DSM 30008 MIC [6]: 0.25 µg/mL
- Escherichia coli 926415 MIC (Escherichia coli 926415): 0.5 µg/mL
- Hemolysis at 100 μg/mL [7]: 1%

SMILES: CC(C)C[C@@H]1NC(=O)[C@@H](CC(C)C)NC(=O)[C@H](CCN)NC(=O)[C@@H](NC(=O)[C@H](CCN)NC(=O)[C@@H](NC(=O)[C@H](CCN)NC(=O)CC[C@@H]2NC(=O)[C@H](CCN)NC(=O)[C@H](Cc3ccc(O)cc3)NC(=O)[C@H](CO)NC(=O)[C@H](CC(C)C)NC(=O)[C@@H]3CCCN3C(=O)[C@H]3CCCN3C(=O)[C@H](CO)NC(=O)[C@H]([C@@H](C)O)NC(=O)[C@H](C(C)C)NC(=O)[C@H](CCN)NC(=O)[C@H](Cc3c[nH]c4ccccc34)NC(=O)[C@H](CCN)NC(=O)[C@@H](CCN)NC2=O)[C@@H](C)O)CCNC(=O)[C@H]([C@@H](C)O)NC(=O)[C@H](CCN)NC(=O)[C@H](CCN)NC1=O [Ex. 92] (I: cyclo(W[Dab]VTS[dP]PLSY[Dab]E[dDab][Dab]) / II: [Dab]T[Dab][Dab][Dab][dL]L[Dab][Dab]T; amide I:12-II:N; lactam II:4-II:C)
- Pseudomonas aeruginosa ATCC 27853 MIC [1]: 0.25 µg/mL
- Acinetobacter baumannii 872842 MIC [2]: 0.5 µg/mL
- Escherichia coli ATCC 25922 MIC [3]: 0.125 µg/mL
- Klebsiella pneumoniae 968733 MIC [4]: 0.5 µg/mL
- Klebsiella pneumoniae SSI #3010 MIC [5]: 0.25 µg/mL
- Acinetobacter baumannii DSM 30008 MIC [6]: 0.25 µg/mL
- Escherichia coli 926415 MIC (Escherichia coli 926415): 0.5 µg/mL
- Hemolysis at 100 μg/mL [7]: 1%

SMILES: CC(C)C[C@@H]1NC(=O)[C@@H](CC(C)C)NC(=O)[C@H](CCN)NC(=O)[C@@H](NC(=O)[C@H](CCN)NC(=O)[C@@H](NC(=O)[C@H](CCN)NC(=O)CC[C@@H]2NC(=O)[C@H](CCN)NC(=O)[C@H](Cc3ccc(O)cc3)NC(=O)[C@H]([C@@H](C)O)NC(=O)[C@H](C(C)C)NC(=O)[C@@H]3C[C@@H](O)CN3C(=O)[C@H]3CCN3C(=O)[C@H](CO)NC(=O)[C@H](CO)NC(=O)[C@H](C(C)C)NC(=O)[C@H](CCN)NC(=O)[C@H](Cc3c[nH]c4ccccc34)NC(=O)[C@H](CCN)NC(=O)[C@@H](CCN)NC2=O)[C@@H](C)O)CCNC(=O)[C@H]([C@@H](C)O)NC(=O)[C@H](CCN)NC(=O)[C@H](CCN)NC1=O [Ex. 93] (I: cyclo([Dab]E[dDab][Dab]W[Dab]VSS[dAze][Hyp]VTY) / II: [Dab]T[Dab][Dab][Dab][dL]L[Dab][Dab]T; amide I:2-II:N; lactam II:4-II:C)
- Pseudomonas aeruginosa ATCC 27853 MIC [1]: 0.25 µg/mL
- Acinetobacter baumannii 872842 MIC [2]: 1 µg/mL
- Escherichia coli ATCC 25922 MIC [3]: 0.5 µg/mL
- Klebsiella pneumoniae 968733 MIC [4]: 8 µg/mL
- Klebsiella pneumoniae SSI #3010 MIC [5]: 0.25 µg/mL
- Acinetobacter baumannii DSM 30008 MIC [6]: 2 µg/mL
- Escherichia coli 926415 MIC (Escherichia coli 926415): 2 µg/mL
- Hemolysis at 100 μg/mL [7]: 1%

SMILES: CC(C)C[C@@H]1NC(=O)[C@@H](CC(C)C)NC(=O)[C@H](CCN)NC(=O)[C@@H](NC(=O)[C@H](CCN)NC(=O)[C@@H](NC(=O)[C@H](CCN)NC(=O)CC[C@@H]2NC(=O)CNC(=O)[C@H](CCCN)NC(=O)[C@H](CCN)NC(=O)[C@H](Cc3ccc(O)cc3)NC(=O)[C@H](CO)NC(=O)[C@H](CC(C)C)NC(=O)[C@@H]3CCCN3C(=O)[C@H]3CCCN3C(=O)[C@H](CO)NC(=O)[C@H]([C@@H](C)O)NC(=O)[C@H](C(C)C)NC(=O)[C@H](CCN)NC(=O)[C@H](Cc3c[nH]c4ccccc34)NC2=O)[C@@H](C)O)CCNC(=O)[C@H]([C@@H](C)O)NC(=O)[C@H](CCN)NC(=O)[C@H](CCN)NC1=O [Ex. 94] (I: cyclo(LSY[Dab][Orn]GEW[Dab]VTS[dP]P) / II: [Dab]T[Dab][Dab][Dab][dL]L[Dab][Dab]T; amide I:7-II:N; lactam II:4-II:C)
- Pseudomonas aeruginosa ATCC 27853 MIC [1]: 0.25 µg/mL
- Acinetobacter baumannii 872842 MIC [2]: 0.25 µg/mL
- Escherichia coli ATCC 25922 MIC [3]: 0.0625 µg/mL
- Klebsiella pneumoniae 968733 MIC [4]: 0.5 µg/mL
- Klebsiella pneumoniae SSI #3010 MIC [5]: 0.125 µg/mL
- Acinetobacter baumannii DSM 30008 MIC [6]: 0.0625 µg/mL
- Escherichia coli 926415 MIC (Escherichia coli 926415): 1 µg/mL
- Hemolysis at 100 μg/mL [7]: 1%
